Measured values: patent US20250099634A1, “METHOD OF TREATING CANCER” (Novartis AG, priority 2023, published 2025)

Assays:
[1] = system: Grade 2 and Grade 3 advanced GEP-NET; assay: NETTER-2 Progression-Free Survival (PFS), central review using RECIST 1.1; assay type: in vivo, human; conditions: for Kaplan-Meier event-free estimates (95% CI): PFS; for Kaplan-Meier event-free estimates (95% CI) / PFS Events / PFS events: Deaths / PFS events: Progression / PFS 25th percentile (95% CI) / PFS 75th percentile (95% CI) / Median PFS (95% CI): Full Analysis Set; for PFS 25th percentile (95% CI) / PFS 75th percentile (95% CI) / Median PFS (95% CI): central review, RECIST 1.1
Protocol: The primary efficacy end-point is PFS as measured by objective tumor response, which is determined by RECIST criteria, Version 1.1 (Eisenhauer, et al., 2009). Tumor response will be assessed locally and centrally.
It is recommended that for each patient identical acquisition and reconstruction protocols be used at all time-points. Central, blinded, real-time IRC (Independent Review Committee) assessment will be conducted for determining progressive disease. Changes from randomization date will be assessed at week 16±1, week 24±1 and then every 12±1 weeks until the PFS primary analysis End-Point has been reached, then until Week 72 after randomization, unless the patient progresses or dies.
The primary endpoint of the study is progression-free survival (PFS), defined as the time from the date of randomization to the date of the first documented progression or death due to any cause. PFS will be assessed via central review according to RECIST 1.1.
The stratification will be based on following randomization stratification factors (grade: G2 vs. G3; and tumor origin: pNET vs other origin).
Analyses will be based on the FAS population according to the randomized treatment group and strata assigned at randomization. The PFS distribution will be estimated using the Kaplan-Meier method, and Kaplan-Meier curves, median and associated 95% confidence intervals will be presented for each treatment group. The hazard ratio for PFS will be calculated, along with its 95% confidence interval, from a stratified Cox model using the same stratification factors as for the log-rank test.

[2] = NETTER-2 worst post-baseline hematology abnormalities based on CTC grades (Safety Set); assay type: in vivo, human
Source text: The laboratory assessments require that blood samples for hematology and blood chemistry, and a urine sample for urinalysis are taken. Laboratory assessments will be performed at the investigational site.
Blood tests performed 4 weeks after any treatment cannot serve as baseline values for the next treatment.
All laboratory data will be listed by treatment group, subject, and visit/time and if normal ranges are available abnormalities will be flagged. Summary statistics will be provided by treatment and visit/time. Shift tables using the low/normal/high/(low and high) classification will be used to compare baseline to the worst on-treatment value.
Grading of laboratory values will be assigned programmatically as per NCI Common Terminology Criteria for Adverse Events (CTCAE) version 5.0 or current version. The calculation of CTCAE grades will be based on the observed laboratory values only, clinical assessments will not be taken into account.
The following summaries will be generated separately for hematology, and biochemistry tests: • 1. Listing of all laboratory data with values flagged to show the corresponding CTCAE grades if applicable and the classifications relative to the laboratory normal ranges • 2. For laboratory tests where grades are defined by CTCAE, • 3. Worst post-baseline CTCAE grade (regardless of the baseline status). Each subject will be counted only once for the worst grade observed post-baseline. • 4. Shift tables using CTCAE grades to compare baseline to the worst on-treatment value • 5. For laboratory tests where grades are not defined by CTCAE, • 6. Shift tables using the low/normal/high/(low and high) classification to compare baseline to the worst on-treatment value.

[3] = system: midgut carcinoid tumors; conditions: cited from earlier work
[4] = NETTER-2 deaths (Safety Set); assay type: in vivo, human; conditions: for subjects died within 30 days after the last dose: randomized treatment period
[5] = All grades (CTCAE v5.0), randomized treatment period, Safety Set
[6] = Grade 3/4 (CTCAE v5.0), randomized treatment period, Safety Set

## C[C@@H](O)[C@H](NC(=O)[C@@H]1CSSC[C@H](NC(=O)[C@@H](Cc2ccccc2)NC(=O)CN2CCN(CC(=O)[O-])CCN(CC(=O)[O-])CCN(CC(=O)[O-])CC2)C(=O)N[C@@H](Cc2ccc(O)cc2)C(=O)N[C@H](Cc2c[nH]c3ccccc23)C(=O)N[C@@H](CCCCN)C(=O)N[C@@H]([C@@H](C)O)C(=O)N1)C(=O)O.[177Lu+3] [Lutathera, ^177Lu-DOTA^0-Tyr^3-Octreotate]
[1]; 4 months
  Kaplan-Meier event-free estimates (95% CI): 95.8 (91.0, 98.1) %
[1]; 6 months
  Kaplan-Meier event-free estimates (95% CI): 92.3 (86.6, 95.7) %
[1]; 9 months
  Kaplan-Meier event-free estimates (95% CI): 85.6 (78.6, 90.5) %
[1]; 12 months
  Kaplan-Meier event-free estimates (95% CI): 80.7 (72.9, 86.4) %
[1]; 15 months
  Kaplan-Meier event-free estimates (95% CI): 71.0 (61.9, 78.3) %
[1]; 18 months
  Kaplan-Meier event-free estimates (95% CI): 66.5 (56.9, 74.4) %
[1]; 24 months
  Kaplan-Meier event-free estimates (95% CI): 49.8 (38.5, 60.1) %
[1]; 30 months
  Kaplan-Meier event-free estimates (95% CI): 36.1 (22.3, 50.1) %
[1]
  PFS Events: 55 (36.4) n (%)
  PFS events: Deaths: 8 (5.3) n (%)
  PFS events: Progression: 47 (31.1) n (%)
  PFS 25th percentile (95% CI): 14.1 (10.9, 17.0) months
  PFS 75th percentile (95% CI): NE (29.0, NE)
[1]; Lutathera arm compared to High-dose Octreotide arm
  estimated risk reduction (progression or death): 72%
[2]; [5]
  Worst post-baseline abnormality: Neutrophils (10E9/L)-Decrease: 55 (37.4) n (%)
[2]; in vivo
  Grade 3/4 hematologic lab abnormality: lymphocytes decrease: 38.1%
  Worst post-baseline abnormality: Leukocytes (10E9/L)-Increase: 0 n (%)
  Worst post-baseline abnormality: Neutrophils (10E9/L)-Decrease: 5 (3.4) n (%)
[3]; NETTER-1, Lutathera versus 60 mg octreotide long-acting
  risk reduction in likelihood of progression or death event: 79%
[3]; NETTER-1
  confirmed events (disease progressions RECIST 1.1 centrally assessed or deaths): 21
  median PFS: not yet been reached
[4]; Safety Set
  Number of Subjects who Died (Overall): 32 (21.8) n (%)
  Number of Subjects who Died (Overall), primary reason Adverse Event: 2 (1.4) n (%)
  Number of Subjects who Died (Overall), primary reason Disease under Study: 30 (20.4) n (%)
  Number of Subjects who Died on-treatment in randomized treatment period (within 30 days of last dose), primary reason Disease under Study: 2 (1.4) n (%)
  Number of Subjects who Died on-treatment in re-treatment period (within 30 days of last dose): 0 n (%)
  Number of subjects who died in the post-treatment follow up period: 30 (20.4) n (%)
  Number of subjects who died in the post-treatment follow up period, primary reason Adverse Event: 2 (1.4) n (%)
  Number of subjects who died in the post-treatment follow up period, primary reason Disease under Study: 28 (19.0) n (%)
[4]; during the study
  cause of death: adverse event: 1.4%
  cause of death: disease under study: 20.4%
  subjects died during the study: 21.8%
[4]
  subjects died within 30 days after the last dose: 1.4%

## C[C@@H](O)[C@@H]1NC(=O)[C@H](CCCCN)NC(=O)[C@@H](Cc2c[nH]c3ccccc23)NC(=O)[C@H](Cc2ccccc2)NC(=O)[C@@H](NC(=O)[C@H](N)Cc2ccccc2)CSSC[C@@H](C(=O)N[C@H](CO)[C@@H](C)O)NC1=O [Octreotide LAR, octreotide]
[1]; 4 months
  Kaplan-Meier event-free estimates (95% CI): 73.5 (61.2, 82.4) %
[1]; 6 months
  Kaplan-Meier event-free estimates (95% CI): 64.5 (51.8, 74.6) %
[1]; 9 months
  Kaplan-Meier event-free estimates (95% CI): 46.0 (33.4, 57.7) %
[1]; 12 months
  Kaplan-Meier event-free estimates (95% CI): 42.4 (30.0, 54.3) %
[1]; 15 months
  Kaplan-Meier event-free estimates (95% CI): 36.4 (24.3, 48.5) %
[1]; 18 months
  Kaplan-Meier event-free estimates (95% CI): 29.2 (17.7, 41.7) %
[1]; 24 months
  Kaplan-Meier event-free estimates (95% CI): 19.5 (9.1, 32.7) %
[1]
  PFS Events: 46 (61.3) n (%)
  PFS events: Deaths: 5 (6.7) n (%)
  PFS events: Progression: 41 (54.7) n (%)
  Median PFS (95% CI): 8.5 (7.7, 13.8) months
  PFS 25th percentile (95% CI): 3.9 (3.7, 5.7) months
  PFS 75th percentile (95% CI): 19.3 (13.8, NE) months
[1]; listed as High-dose Octreotide
  Median PFS (95% CI): 8.5 months
[1]; listed as high-dose Octreotide
  Median PFS (95% CI): 8.5 (7.7, 13.8) months
[2]; [5]
  Worst post-baseline abnormality: Hemoglobin (g/L)-Decrease: 42 (57.5) n (%)
  Worst post-baseline abnormality: Hemoglobin (g/L)-Increase: 2 (2.7) n (%)
  Worst post-baseline abnormality: Leukocytes (10E9/L)-Decrease: 15 (20.5) n (%)
  Worst post-baseline abnormality: Leukocytes (10E9/L)-Increase: 0 n (%)
  Worst post-baseline abnormality: Lymphocytes (10E9/L)-Decrease: 45 (61.6) n (%)
  Worst post-baseline abnormality: Lymphocytes (10E9/L)-Increase: 3 (4.1) n (%)
  Worst post-baseline abnormality: Neutrophils (10E9/L)-Decrease: 9 (12.3) n (%)
  Worst post-baseline abnormality: Platelets (10E9/L)-Decrease: 15 (20.5) n (%)
[2]; [6]
  Worst post-baseline abnormality: Hemoglobin (g/L)-Decrease: 2 (2.7) n (%)
  Worst post-baseline abnormality: Hemoglobin (g/L)-Increase: 0 n (%)
  Worst post-baseline abnormality: Leukocytes (10E9/L)-Decrease: 0 n (%)
  Worst post-baseline abnormality: Leukocytes (10E9/L)-Increase: 0 n (%)
  Worst post-baseline abnormality: Lymphocytes (10E9/L)-Decrease: 2 (2.7) n (%)
  Worst post-baseline abnormality: Lymphocytes (10E9/L)-Increase: 0 n (%)
  Worst post-baseline abnormality: Neutrophils (10E9/L)-Decrease: 0 n (%)
  Worst post-baseline abnormality: Platelets (10E9/L)-Decrease: 0 n (%)
[2]; randomized treatment period
  Grade 3/4 hematologic lab abnormality: lymphocytes decrease: 2.7%
[3]; NETTER-1
  confirmed events (disease progressions RECIST 1.1 centrally assessed or deaths): 70
  median PFS: 8.5 months
[3]; NETTER-1 control arm, high dose (60 mg)
  median time free from relapse: 8.4 months
[4]; Safety Set
  Number of Subjects who Died (Overall): 14 (19.2) n (%)
  Number of Subjects who Died (Overall), primary reason Adverse Event: 1 (1.4) n (%)
  Number of Subjects who Died on-treatment in cross-over period (within 30 days of last dose), primary reason Disease under Study: 1 (1.4) n (%)
  Number of Subjects who Died on-treatment in randomized treatment period (within 30 days of last dose), primary reason Disease under Study: 4 (5.5) n (%)
  Number of subjects who died in the post-treatment follow up period: 9 (12.3) n (%)
  Number of subjects who died in the post-treatment follow up period, primary reason Adverse Event: 1 (1.4) n (%)
  Number of subjects who died in the post-treatment follow up period, primary reason Disease under Study: 8 (11.0) n (%)
[4]; during the study
  cause of death: adverse event: 1.4%
  subjects died during the study: 19.2%
[4]
  subjects died within 30 days after the last dose: 5.5%
